How the values were obtained:
Bradykinin-1 receptor [1] = target: T1, Bradykinin-1 receptor (Homo sapiens (Human), UniProt P46663); assay: Calcium mobilization assay (FLIPR, Fluo-4) in GeneBLAzer Bradykinin (B1)-NFAT-bla CHO-K1 cells; assay type: cell-based; conditions: antagonist activity; CHO-K1 cells stably overexpressing the human bradykinin 1 receptor; read-out: Ca mobilization Assay IC50
Bradykinin-1 receptor [2] = target: T1, Bradykinin-1 receptor; assay: Receptor binding assay (B1R Binding Assay), [3H]-Kallidin (Des Arg10, Leu9) displacement; conditions: membranes from CHO-K1 cells overexpressing Bradykinin-1 receptor; 6 nM radioligand
Procedure: Binding assays were done with membranes from CHO-K1 cells overexpressing Bradykinin-1 receptor.
To determine non-specific binding 10 μM Lys-(Des-Arg^9)-Bradykinin (Bachem) was added. Membranes were harvested through GF/B (glass fiber filter; PerkinElmer) plates, equilibrated with 0.5% polyethylenimine, air dried at 50° C. for 2 h. Radioactivity was determined by counting in a topcounter (NXT Packard).

T1 sequence (P46663 whole entry): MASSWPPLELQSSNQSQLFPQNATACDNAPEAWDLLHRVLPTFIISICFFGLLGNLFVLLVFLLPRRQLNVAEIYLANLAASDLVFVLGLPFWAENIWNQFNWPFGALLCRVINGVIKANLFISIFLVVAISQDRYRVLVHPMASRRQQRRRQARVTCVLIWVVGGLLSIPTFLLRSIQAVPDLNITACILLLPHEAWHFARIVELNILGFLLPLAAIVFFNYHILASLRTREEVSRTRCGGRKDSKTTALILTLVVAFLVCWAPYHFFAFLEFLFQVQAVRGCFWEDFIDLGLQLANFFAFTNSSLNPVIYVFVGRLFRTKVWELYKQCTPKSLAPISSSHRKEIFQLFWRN

COC(=O)c1ccccc1-c1ccc2c(c1)CCC2NC(=O)C1(NC(=O)C(F)(F)F)CC1 (racemic) [Example 1, (rac)-2-(1-{[1-(2,2,2-Trifluoro-acetylamino)-cyclopropanecarbonyl]-amino}-indan-5-yl)-benzoic acid methyl ester]
IC50 (Bradykinin-1 receptor [1]): 2250 nM
Ki (Bradykinin-1 receptor [2]): 2170 nM

Cc1nc(-c2c(F)cc(Cl)cc2-c2ccc3c(c2)CC[C@@H]3NC(=O)C2(NC(=O)C(F)(F)F)CC2)no1 [Example 5, 1-(2,2,2-Trifluoro-acetylamino)-cyclopropanecarboxylic acid{(S)-5-[5-chloro-3-fluoro-2-(5-methyl-[1,2,4]oxadiazol-3-yl)-phenyl]-indan-1-yl}-amide]
IC50 (Bradykinin-1 receptor [1]): 0.6 nM
Ki (Bradykinin-1 receptor [2]): 6.2 nM

Cc1nc(-c2c(F)cc(Cl)cc2-c2cnc3c(c2)CCC3NC(=O)C2(N)CC2)no1 (racemic) [Example 37, 1-Amino-cyclopropanecarboxylic acid{(rac)-3-[5-chloro-3-fluoro-2-(5-methyl-[1,2,4]oxadiazol-3-yl)-phenyl]-6,7-dihydro-5H-[1]pyrindin-7-yl}-amide]
IC50 (Bradykinin-1 receptor [1]): 301 nM
Ki (Bradykinin-1 receptor [2]): 591 nM

COc1ncc(C(=O)NC2(C(=O)NC3CCc4cc(-c5cc(Cl)cc(F)c5-c5noc(C)n5)cc(F)c43)CC2)cn1 (racemic) [Example 33, 2-Methoxy-pyrimidine-5-carboxylic acid(1-{(rac)-5-[5-chloro-3-fluoro-2-(5-methyl-[1,2,4]oxadiazol-3-yl)-phenyl]-7-fluoro-indan-1-ylcarbamoyl}-cyclopropyl)-amide]
IC50 (Bradykinin-1 receptor [1]): 0.5 nM
Ki (Bradykinin-1 receptor [2]): 18.9 nM

COc1cc(C(=O)NC2(C(=O)N[C@H]3CCc4cc(-c5cc(Cl)cc(F)c5-c5noc(C)n5)ccc43)CC2)on1 [Example 30, 3-Methoxy-isoxazole-5-carboxylic acid(1-{(S)-5-[5-chloro-3-fluoro-2-(5-methyl-[1,2,4]oxadiazol-3-yl)-phenyl]-indan-1-ylcarbamoyl}-cyclopropyl)-amide]
IC50 (Bradykinin-1 receptor [1]): 0.1 nM
Ki (Bradykinin-1 receptor [2]): 3.9 nM

Cc1nc(-c2c(F)cc(Cl)cc2-c2cnc3c(c2)CCC3NC(=O)C2(NC(=O)OC(C)(C)C)CC2)no1 (racemic) [Example 36, (1-{(rac)-3-[5-Chloro-3-fluoro-2-(5-methyl-[1,2,4]oxadiazol-3-yl)-phenyl]-6,7-dihydro-5H-[1]pyrindin-7-ylcarbamoyl}-cyclopropyl)-carbamic acid tert-butyl ester]
IC50 (Bradykinin-1 receptor [1]): 3.6 nM
Ki (Bradykinin-1 receptor [2]): 361 nM

COc1cc(C(=O)NC2(C(=O)N[C@H]3CCc4cc(-c5cc(Cl)cc(F)c5-c5noc(C)n5)ccc43)COC2)on1 [Example 53, 3-Methoxy-isoxazole-5-carboxylic acid (3-{(S)-5-[5-chloro-3-fluoro-2-(5-methyl-[1,2,4]oxadiazol-3-yl)-phenyl]-indan-1-ylcarbamoyl}-oxetan-3-yl)-amide]
IC50 (Bradykinin-1 receptor [1]): 0.4 nM
Ki (Bradykinin-1 receptor [2]): 3.6 nM

COc1cc(C(=O)NC2(C(=O)NC3CCc4cc(-c5cc(Cl)cc(F)c5-c5noc(C)n5)cc(F)c43)CC2)on1 (racemic) [Example 35, 3-Methoxy-isoxazole-5-carboxylic acid(1-{(rac)-5-[5-chloro-3-fluoro-2-(5-methyl-[1,2,4]oxadiazol-3-yl)-phenyl]-7-fluoro-indan-1-ylcarbamoyl}-cyclopropyl)-amide]
IC50 (Bradykinin-1 receptor [1]): 0.5 nM
Ki (Bradykinin-1 receptor [2]): 17.1 nM

Cn1nnc(-c2c(F)cc(Cl)cc2-c2cnc3c(c2)CCC3NC(=O)C2(N)CC2)n1 (racemic) [Example 55, 1-Amino-cyclopropanecarboxylic acid{(rac)-3-[5-chloro-3-fluoro-2-(2-methyl-2H-tetrazol-5-yl)-phenyl]-6,7-dihydro-5H-[1]pyrindin-7-yl}-amide]
IC50 (Bradykinin-1 receptor [1]): 61.1 nM
Ki (Bradykinin-1 receptor [2]): 211 nM

COc1ncc(C(=O)NC2(C(=O)NC3CCc4cc(-c5cc(Cl)cc(F)c5-c5nnn(C)n5)cnc43)CC2)cn1 (racemic) [Example 56, 2-Methoxy-pyrimidine-5-carboxylic acid(1-{(rac)-3-[5-chloro-3-fluoro-2-(2-methyl-2H-tetrazol-5-yl)-phenyl]-6,7-dihydro-5H-[1]pyrindin-7-ylcarbamoyl}-cyclopropyl)-amide]
IC50 (Bradykinin-1 receptor [1]): 0.2 nM
Ki (Bradykinin-1 receptor [2]): 4.5 nM

Cc1nc(-c2c(F)cc(Cl)cc2-c2ccc3c(c2)CC[C@@H]3NC(=O)C2(NC(=O)c3cncnc3)CC2)no1 [Example 25, Pyrimidine-5-carboxylic acid(1-{(S)-5-[5-chloro-3-fluoro-2-(5-methyl-[1,2,4]oxadiazol-3-yl)-phenyl]-indan-1-ylcarbamoyl}-cyclopropyl)-amide]
IC50 (Bradykinin-1 receptor [1]): 0.1 nM
Ki (Bradykinin-1 receptor [2]): 3.1 nM

COC(=O)c1c(Cl)cccc1-c1ccc2c(c1)CCCC2NC(=O)C1(NC(=O)C(F)(F)F)CC1 (racemic) [Example 10, (rac)-2-Chloro-6-(5-{[1-(2,2,2-trifluoro-acetylamino)-cyclopropanecarbonyl]-amino}-5,6,7,8-tetrahydro-naphthalen-2-yl)-benzoic acid methyl ester]
IC50 (Bradykinin-1 receptor [1]): 118 nM
Ki (Bradykinin-1 receptor [2]): 522 nM

Cn1nnc(-c2c(F)cc(Cl)cc2-c2ccc3c(c2)SCC3NC(=O)C2(NC(=O)c3ccno3)CC2)n1 (racemic) [Example 64, Isoxazole-5-carboxylic acid(1-{(rac)-6-[5-chloro-3-fluoro-2-(2-methyl-2H-tetrazol-5-yl)-phenyl]-2,3-dihydro-benzo[b]thiophen-3-ylcarbamoyl}-cyclopropyl)-amide]
IC50 (Bradykinin-1 receptor [1]): 0.5 nM
Ki (Bradykinin-1 receptor [2]): 7.1 nM

Cn1nnc(-c2c(F)cc(Cl)cc2-c2ccc3c(c2)OCC3NC(=O)C2(NC(=O)C(F)(F)F)CC2)n1 (racemic) [Example 20, 1-(2,2,2-Trifluoro-acetylamino)-cyclopropanecarboxylic acid{(rac)-6-[5-chloro-3-fluoro-2-(2-methyl-2H-tetrazol-5-yl)-phenyl]-2,3-dihydro-benzofuran-3-yl}-amide]
IC50 (Bradykinin-1 receptor [1]): 3.6 nM
Ki (Bradykinin-1 receptor [2]): 24 nM

Cc1cc(C(=O)NC2(C(=O)NC3CCc4cc(-c5cc(Cl)cc(F)c5-c5nnn(C)n5)cnc43)CC2)on1 (racemic) [Example 58, 3-Methyl-isoxazole-5-carboxylic acid(1-{(rac)-3-[5-chloro-3-fluoro-2-(2-methyl-2H-tetrazol-5-yl)-phenyl]-6,7-dihydro-5H-[1]pyrindin-7-ylcarbamoyl}-cyclopropyl)-amide]
IC50 (Bradykinin-1 receptor [1]): 0.4 nM
Ki (Bradykinin-1 receptor [2]): 6.3 nM

COc1cc(C(=O)NC2(C(=O)NC3CCc4cc(-c5cc(Cl)cc(F)c5-c5nnn(C)n5)cnc43)CC2)on1 (racemic) [Example 59, 3-Methoxy-isoxazole-5-carboxylic acid(1-{(rac)-3-[5-chloro-3-fluoro-2-(2-methyl-2H-tetrazol-5-yl)-phenyl]-6,7-dihydro-5H-[1]pyrindin-7-ylcarbamoyl}-cyclopropyl)-amide]
IC50 (Bradykinin-1 receptor [1]): 0.3 nM
Ki (Bradykinin-1 receptor [2]): 3.5 nM

Cc1nc(-c2c(F)cc(Cl)cc2-c2cnc3c(c2)CCC3NC(=O)C2(NC(=O)c3ccnnc3)CC2)no1 (single isomer, unassigned) [Example 40, Pyridazine-4-carboxylic acid(1-{(R or S) 3-[5-chloro-3-fluoro-2-(5-methyl-[1,2,4]oxadiazol-3-yl)-phenyl]-6,7-dihydro-5H-[1]pyrindin-7-ylcarbamoyl}-cyclopropyl)-amide]
IC50 (Bradykinin-1 receptor [1]): 35.2 nM
Ki (Bradykinin-1 receptor [2]): 130 nM

COc1cc(C(=O)NC2(C(=O)NC3COc4cc(-c5cc(Cl)cc(F)c5-c5noc(C)n5)ccc43)CC2)on1 (racemic) [Example 48, 3-Methoxy-isoxazole-5-carboxylic acid(1-{(rac)-6-[5-chloro-3-fluoro-2-(5-methyl-[1,2,4]oxadiazol-3-yl)-phenyl]-2,3-dihydro-benzofuran-3-ylcarbamoyl}-cyclopropyl)-amide]
IC50 (Bradykinin-1 receptor [1]): 4 nM
Ki (Bradykinin-1 receptor [2]): 23.8 nM

Cc1nc(-c2c(F)cc(Cl)cc2-c2cnc3c(c2)CCC3NC(=O)C2(NC(=O)c3ccnnc3)CC2)no1 (racemic) [Example 39, Pyridazine-4-carboxylic acid(1-{(rac) 3-[5-chloro-3-fluoro-2-(5-methyl-[1,2,4]oxadiazol-3-yl)-phenyl]-6,7-dihydro-5H-[1]pyrindin-7-ylcarbamoyl}-cyclopropyl)-amide]
IC50 (Bradykinin-1 receptor [1]): 0.6 nM
Ki (Bradykinin-1 receptor [2]): 7.5 nM

Cc1nc(-c2c(F)cc(Cl)cc2-c2cnc3c(c2)CCC3NC(=O)C2(NC(=O)C(F)(F)F)CC2)no1 (racemic) [Example 12, 1-(2,2,2-Trifluoro-acetylamino)-cyclopropanecarboxylic acid{(rac)-3-[5-chloro-3-fluoro-2-(5-methyl-[1,2,4]oxadiazol-3-yl)-phenyl]-6,7-dihydro-5H-[1]pyrindin-7-yl}-amide]
IC50 (Bradykinin-1 receptor [1]): 0.5 nM
Ki (Bradykinin-1 receptor [2]): 4.4 nM

COc1ncc(C(=O)NC2(C(=O)NC3COc4cc(-c5cc(Cl)cc(F)c5-c5noc(C)n5)ccc43)CC2)cn1 (racemic) [Example 47, 2-Methoxy-pyrimidine-5-carboxylic acid(1-{(rac)-6-[5-chloro-3-fluoro-2-(5-methyl-[1,2,4]oxadiazol-3-yl)-phenyl]-2,3-dihydro-benzofuran-3-ylcarbamoyl}-cyclopropyl)-amide]
IC50 (Bradykinin-1 receptor [1]): 0.2 nM
Ki (Bradykinin-1 receptor [2]): 5.4 nM

Source: patent US8592426B2, “Aryl-benzocycloalkyl amide derivatives” (Hoffmann—La Roche Inc., priority 2011, dated 2013)
